Tests used:
Format in all cases: cell-based
[1] = target: T1, CFTR ΔF508 (Homo sapiens, UniProt P13569, DEL508-508); assay: Chronic TECC assay, primary bronchial epithelial cells of CF patients homozygous for CFTR ΔF508 (corrector, co-corrector and potentiator); settings: chronic TECC, AUC = full area under the curve upon forskolin stimulation; for EC50: read-out: EC50 (nM) (AUC**); for % Activity at 1 μM (AUC**): test compound at 1 μM
T1 construct: bronchial epithelial cells isolated from CF patients homozygous for the CFTR ΔF508 mutation; McGill University; Asterand; University of North Carolina hAEC-CF; host or cells: primary human bronchial epithelial cells from CF patients homozygous for ΔF508, differentiated at air-liquid interface
Procedure, shortened: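 Primary bronchial epithelial cells from ΔF508-homozygous CF patients on collagen IV-coated Transwells were chronically treated with test compound plus corrector and potentiator, which were re-added before recording. Ieq was derived from PD and Rt in NaCl-Ringer, pH 7.4, at 37° C, with apical amiloride and bilateral forskolin, recorded every 2 min over 20 min. Ieq increase was normalized to controls, and EC50 was taken from per-well concentrations.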

[2] = target: T2, ΔF508-CFTR (Homo sapiens, UniProt P13569, DEL508-508); assay: CFTR cell surface levels using HRP-tagged ΔF508-CFTR expressing CFBE cells, in the presence of a co-corrector; settings: HRP-tagged ΔF508-CFTR CFBE cells, in the presence of 3 μM co-corrector; for EC50: read-out: EC50
T2 construct: host or cells: CFBE41o-, doxycycline-inducible
Procedure, shortened: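 Chemiluminescent read-out of surface HRP (15 min, dark) after PBS washes. Activity is normalized as 100×(sample−DMSO)/(3 μM co-corrector alone−DMSO).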

[3] = target: T2, ΔF508-CFTR; assay: CFTR cell surface levels using HRP-tagged ΔF508-CFTR expressing CFBE cells, intrinsic corrector capacity; set-up: % Activation: concentration or dose not given beside the values; settings: HRP-tagged ΔF508-CFTR expressing CFBE41o- cells, compound alone (intrinsic corrector capacity), 20 hours at 33° C.; for EC50: read-out: EC50
Procedure, shortened: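 Read-out: chemiluminescent HRP activity of ECL4-HRP-tagged ΔF508-CFTR at the cell surface, 15 min substrate in dark. Normalized as 100×(sample−DMSO)/(positive control−DMSO).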

T1 sequence (P13569 with tags, fused parts or gaps DEL508-508): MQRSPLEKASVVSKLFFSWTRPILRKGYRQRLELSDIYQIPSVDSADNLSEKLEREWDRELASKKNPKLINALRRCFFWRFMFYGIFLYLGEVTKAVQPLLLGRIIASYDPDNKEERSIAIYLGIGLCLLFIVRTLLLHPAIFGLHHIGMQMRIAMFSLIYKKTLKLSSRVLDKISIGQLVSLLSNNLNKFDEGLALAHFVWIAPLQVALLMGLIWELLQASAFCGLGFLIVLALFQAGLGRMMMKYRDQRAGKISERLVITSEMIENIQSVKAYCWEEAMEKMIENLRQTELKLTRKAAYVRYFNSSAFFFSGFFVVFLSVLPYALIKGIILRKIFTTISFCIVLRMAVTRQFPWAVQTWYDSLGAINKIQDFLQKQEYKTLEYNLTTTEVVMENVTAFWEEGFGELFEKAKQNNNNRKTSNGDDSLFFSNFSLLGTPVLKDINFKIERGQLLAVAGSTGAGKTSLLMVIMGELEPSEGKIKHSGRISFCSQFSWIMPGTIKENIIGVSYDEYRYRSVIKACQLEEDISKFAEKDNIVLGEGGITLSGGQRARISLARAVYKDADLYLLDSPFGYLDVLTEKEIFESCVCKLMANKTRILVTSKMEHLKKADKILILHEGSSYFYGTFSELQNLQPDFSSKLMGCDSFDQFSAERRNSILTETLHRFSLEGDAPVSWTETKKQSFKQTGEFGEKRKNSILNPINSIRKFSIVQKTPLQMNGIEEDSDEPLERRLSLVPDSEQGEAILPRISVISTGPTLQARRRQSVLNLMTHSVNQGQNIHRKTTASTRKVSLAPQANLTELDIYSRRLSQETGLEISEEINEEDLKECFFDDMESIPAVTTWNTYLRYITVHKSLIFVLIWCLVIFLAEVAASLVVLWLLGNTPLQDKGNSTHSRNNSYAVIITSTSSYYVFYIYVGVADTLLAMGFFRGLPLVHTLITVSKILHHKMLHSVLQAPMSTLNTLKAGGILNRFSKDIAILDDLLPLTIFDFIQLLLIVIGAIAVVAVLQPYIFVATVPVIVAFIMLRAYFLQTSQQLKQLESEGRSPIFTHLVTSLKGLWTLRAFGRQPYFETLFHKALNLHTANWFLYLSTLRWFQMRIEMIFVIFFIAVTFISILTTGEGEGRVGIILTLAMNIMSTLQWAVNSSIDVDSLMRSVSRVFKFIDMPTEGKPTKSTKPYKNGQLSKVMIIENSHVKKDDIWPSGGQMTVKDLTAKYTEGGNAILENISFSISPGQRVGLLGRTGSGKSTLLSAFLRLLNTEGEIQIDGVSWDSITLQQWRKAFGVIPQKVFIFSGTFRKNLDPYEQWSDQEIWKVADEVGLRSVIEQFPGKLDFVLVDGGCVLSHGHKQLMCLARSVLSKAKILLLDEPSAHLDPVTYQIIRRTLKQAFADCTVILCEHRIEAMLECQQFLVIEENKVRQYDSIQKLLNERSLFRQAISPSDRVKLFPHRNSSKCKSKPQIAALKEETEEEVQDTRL
T2 sequence (P13569 with tags, fused parts or gaps DEL508-508): as above

SMILES	EC50 [1]	% Activity at 1 μM (AUC**) [1]	% Activation [2]	EC50 [2]	% Activation [3]	EC50 [3]
O=C(NS(=O)(=O)C1CCOC1)c1cc(N2CCC(N3CCOCC3)CC2)c2c(C3CCC3)nn(-c3ccc(F)cc3)c2n1 (stereo not drawn) [Compound 429, 3-cyclobutyl-1-(4-fluorophenyl)-4-[4-(morpholin-4-yl)piperidin-1-yl]-N-(oxolane-3-sulfonyl)-1H-pyrazolo[3,4-b]pyridine-6-carboxamide]	83.8 nM	180%	422.8%	205 nM	252.1%	378 nM
CS(=O)(=O)NC(=O)c1cc(N2CCC(CCN3CCOCC3)CC2)c2c(C3CCC3)nn(-c3ccc(F)cc3)c2n1 [Compound 431, 3-cyclobutyl-1-(4-fluorophenyl)-N-(methanesulfonyl)-4-{4-[2-(morpholin-4-yl)ethyl]piperidin-1-yl}-1H-pyrazolo[3,4-b]pyridine-6-carboxamide]	–	280%	568.8%	47 nM	344.95%	109 nM
CC(C1CCN(c2cc(C(=O)NS(=O)(=O)N(C)C)nc3c2c(C2CCC2)nn3-c2ccc(F)cc2)CC1)N1CCOCC1 (stereo not drawn) [Compound 440, 3-cyclobutyl-N-(dimethylsulfamoyl)-1-(4-fluorophenyl)-4-{4-[1-(morpholin-4-yl)ethyl]piperidin-1-yl}-1H-pyrazolo[3,4-b]pyridine-6-carboxamide]	2.98 nM	696.6667%	543.55%	55.4 nM	334.8%	129 nM
CC(C)Oc1nn(C2CCCCC2)c2nc(C(=O)NS(C)(=O)=O)cc(-c3ccc(CN4CCN(C)CC4)cc3)c12 [Compound 441, 1-cyclohexyl-N-(methanesulfonyl)-4-{4-[(4-methylpiperazin-1-yl)methyl]phenyl}-3-[(propan-2-yl)oxy]-1H-pyrazolo[3,4-b]pyridine-6-carboxamide]	206 nM	236.6667%	393.27%	196 nM	196.1%	350 nM
CC(C1CCN(c2cc(C(=O)NS(C)(=O)=O)nc3c2c(C2CCC2)nn3-c2ccc(F)cc2)CC1)N1CCOCC1 (stereo not drawn) [Compound 445, 3-cyclobutyl-1-(4-fluorophenyl)-N-(methanesulfonyl)-4-{4-[1-(morpholin-4-yl)ethyl]piperidin-1-yl}-1H-pyrazolo[3,4-b]pyridine-6-carboxamide]	–	406.6667%	671.25%	59.1 nM	393.1%	111 nM
COCCS(=O)(=O)NC(=O)c1cc(N2CCC(CN3CCOCC3)CC2)c2c(C3CCC3)nn(-c3ccc(F)cc3)c2n1 [Compound 447, 3-cyclobutyl-1-(4-fluorophenyl)-N-(2-methoxyethanesulfonyl)-4-{4-[(morpholin-4-yl)methyl]piperidin-1-yl}-1H-pyrazolo[3,4-b]pyridine-6-carboxamide]	–	330%	543.1%	64.7 nM	330.9%	244 nM
O=C(NS(=O)(=O)CCO)c1cc(N2CCC(N3CCOCC3)CC2)c2c(C3CCC3)nn(-c3ccc(F)cc3)c2n1 [Compound 448, 3-cyclobutyl-1-(4-fluorophenyl)-N-(2-hydroxyethanesulfonyl)-4-[4-(morpholin-4-yl)piperidin-1-yl]-1H-pyrazolo[3,4-b]pyridine-6-carboxamide]	–	116.8948%	431.1%	181 nM	258.2%	477 nM
CN(C)S(=O)(=O)NC(=O)c1cc(N2CCC(N3CCOCC3)CC2)c2c(C3CCC3)nn(-c3ccccc3)c2n1 [Compound 456, 3-cyclobutyl-N-(dimethylsulfamoyl)-4-[4-(morpholin-4-yl)piperidin-1-yl]-1-phenyl-1H-pyrazolo[3,4-b]pyridine-6-carboxamide]	–	261.1621%	457.7%	93.3 nM	268.4%	158 nM
CN(C)S(=O)(=O)NC(=O)c1cc(N2CCN(c3ccncc3)CC2)c2c(C3CCC3)nn(C3CCCCC3)c2n1 [Compound 469, 3-cyclobutyl-1-cyclohexyl-N-(dimethylsulfamoyl)-4-[4-(pyridin-4-yl)piperazin-1-yl]-1H-pyrazolo[3,4-b]pyridine-6-carboxamide]	108 nM	293.3333%	469.4%	125 nM	253.8%	204 nM
CCS(=O)(=O)NC(=O)c1cc(N2CCN(c3ccncc3)CC2)c2c(C3CCC3)nn(C3CCCCC3)c2n1 [Compound 470, 3-cyclobutyl-1-cyclohexyl-N-(ethanesulfonyl)-4-[4-(pyridin-4-yl)piperazin-1-yl]-1H-pyrazolo[3,4-b]pyridine-6-carboxamide]	–	210%	485.5%	115 nM	275.4%	231 nM
COCCN(C)S(=O)(=O)NC(=O)c1cc(N2CCC(N3CCOCC3)CC2)c2c(C3CCC3)nn(-c3ccc(F)cc3)c2n1 [Compound 471, 3-cyclobutyl-1-(4-fluorophenyl)-N-[(2-methoxyethyl)(methyl)sulfamoyl]-4-[4-(morpholin-4-yl)piperidin-1-yl]-1H-pyrazolo[3,4-b]pyridine-6-carboxamide]	–	296.6667%	446.07%	122 nM	240.2%	230 nM
CN(C)S(=O)(=O)NC(=O)c1cc(N2CCC(N3CCCCC3)CC2)c2c(C3CCC3)nn(-c3ccc(F)cc3)c2n1 [Compound 472, 4-([1,4'-bipiperidin]-1'-yl)-3-cyclobutyl-N-(dimethylsulfamoyl)-1-(4-fluorophenyl)-1H-pyrazolo[3,4-b]pyridine-6-carboxamide]	34.2 nM	181.0865%	399.79%	249 nM	210.57%	681 nM
COCC1CCN(c2cc(C(=O)NS(C)(=O)=O)nc3c2c(C2CCC2)nn3-c2ccnc(C3CCOCC3)c2)CC1 [Compound 473, 3-cyclobutyl-N-(methanesulfonyl)-4-[4-(methoxymethyl)piperidin-1-yl]-1-[2-(oxan-4-yl)pyridin-4-yl]-1H-pyrazolo[3,4-b]pyridine-6-carboxamide]	–	243.3333%	370.7%	43.9 nM	166.3%	70.8 nM
COc1cc(-n2nc(C3CCC3)c3c(N4CCC(N5CCOCC5)CC4)cc(C(=O)NS(C)(=O)=O)nc32)ccn1 [Compound 474, 3-cyclobutyl-N-(methanesulfonyl)-1-(2-methoxypyridin-4-yl)-4-[4-(morpholin-4-yl)piperidin-1-yl]-1H-pyrazolo[3,4-b]pyridine-6-carboxamide]	–	226.6667%	390.2%	524 nM	194.5%	581 nM

Reference: patent US10259810B2, “N-sulfonylated pyrazolo[3,4-b]pyridin-6-carboxamides and method of use” (AbbVie S.à.r.l., priority 2015, dated 2019)
